# Molecular target: T1, Nav1.7 (or SCN9A) channel (Homo sapiens, UniProt Q15858)
# T1 construct: expressed in transfected cells
# Assay: Nav1.7 PatchXpress 7000 automated electrophysiology assay (HEK cells stably expressing hSCN9A)
# Type: cell-based
# Details: voltage-clamped at V1/2 of inactivation, read-out: Nav1.7 EIC50
# Procedure, shortened: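 Automated whole-cell clamp (PatchXpress) of HEK cells stably expressing hSCN9A, at 22-24 °C, in extracellular buffer at pH 7.4. Cells were held at the measured V1/2 of inactivation, then stepped to 0 mV for 20 ms. Single-concentration % inhibition gave EIC50 = concentration × (100 − %inhibition)/%inhibition, excluding <20% or >80%.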
# T1 sequence (Q15858 whole entry): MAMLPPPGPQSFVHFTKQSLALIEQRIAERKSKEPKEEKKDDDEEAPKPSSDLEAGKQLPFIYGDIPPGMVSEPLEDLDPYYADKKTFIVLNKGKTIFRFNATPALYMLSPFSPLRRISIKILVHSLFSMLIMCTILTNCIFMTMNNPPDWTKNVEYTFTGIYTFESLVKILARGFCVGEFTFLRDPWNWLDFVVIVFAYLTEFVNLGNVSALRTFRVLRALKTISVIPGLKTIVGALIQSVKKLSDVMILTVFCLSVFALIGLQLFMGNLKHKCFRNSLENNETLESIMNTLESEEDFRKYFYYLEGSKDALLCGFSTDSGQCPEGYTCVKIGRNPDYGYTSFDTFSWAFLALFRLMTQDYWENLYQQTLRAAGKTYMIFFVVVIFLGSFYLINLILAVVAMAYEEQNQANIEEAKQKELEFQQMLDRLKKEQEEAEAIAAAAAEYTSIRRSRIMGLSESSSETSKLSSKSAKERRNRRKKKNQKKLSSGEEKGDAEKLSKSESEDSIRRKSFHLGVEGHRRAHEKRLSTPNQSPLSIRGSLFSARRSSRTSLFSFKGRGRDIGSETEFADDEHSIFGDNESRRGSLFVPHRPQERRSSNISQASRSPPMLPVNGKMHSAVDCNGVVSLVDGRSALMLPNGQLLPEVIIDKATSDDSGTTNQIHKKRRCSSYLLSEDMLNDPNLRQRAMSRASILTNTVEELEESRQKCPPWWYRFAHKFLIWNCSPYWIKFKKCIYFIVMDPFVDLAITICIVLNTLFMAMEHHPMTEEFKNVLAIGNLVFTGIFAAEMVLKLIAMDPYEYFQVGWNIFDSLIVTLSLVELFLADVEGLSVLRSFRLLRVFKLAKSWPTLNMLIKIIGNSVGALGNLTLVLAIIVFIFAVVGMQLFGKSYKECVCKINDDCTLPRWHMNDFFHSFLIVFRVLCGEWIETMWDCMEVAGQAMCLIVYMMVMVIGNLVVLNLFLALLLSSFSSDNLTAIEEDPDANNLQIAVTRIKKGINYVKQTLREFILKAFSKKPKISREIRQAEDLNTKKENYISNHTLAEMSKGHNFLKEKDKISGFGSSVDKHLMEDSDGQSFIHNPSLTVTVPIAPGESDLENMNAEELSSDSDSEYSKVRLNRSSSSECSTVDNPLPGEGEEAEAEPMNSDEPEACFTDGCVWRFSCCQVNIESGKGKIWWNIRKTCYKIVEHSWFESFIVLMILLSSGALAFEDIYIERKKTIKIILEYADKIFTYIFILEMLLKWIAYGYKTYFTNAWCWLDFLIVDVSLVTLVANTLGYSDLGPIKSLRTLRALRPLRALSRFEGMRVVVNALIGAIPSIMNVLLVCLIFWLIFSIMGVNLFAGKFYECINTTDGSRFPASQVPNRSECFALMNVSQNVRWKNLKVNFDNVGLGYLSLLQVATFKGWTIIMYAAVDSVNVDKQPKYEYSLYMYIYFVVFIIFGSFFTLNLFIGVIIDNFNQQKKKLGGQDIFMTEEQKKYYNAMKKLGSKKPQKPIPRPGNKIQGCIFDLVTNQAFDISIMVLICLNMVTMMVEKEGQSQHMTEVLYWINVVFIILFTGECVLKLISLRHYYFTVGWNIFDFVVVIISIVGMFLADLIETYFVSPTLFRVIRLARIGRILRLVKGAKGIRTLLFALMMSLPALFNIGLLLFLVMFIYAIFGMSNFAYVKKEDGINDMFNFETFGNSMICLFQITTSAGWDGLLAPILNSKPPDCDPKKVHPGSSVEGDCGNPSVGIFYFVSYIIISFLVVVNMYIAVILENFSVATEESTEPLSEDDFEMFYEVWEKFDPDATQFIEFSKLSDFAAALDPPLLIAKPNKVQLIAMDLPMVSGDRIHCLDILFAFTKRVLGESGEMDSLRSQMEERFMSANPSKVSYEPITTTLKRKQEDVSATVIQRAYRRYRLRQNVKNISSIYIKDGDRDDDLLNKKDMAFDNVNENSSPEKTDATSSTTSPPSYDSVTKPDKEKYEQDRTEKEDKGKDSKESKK
row,SMILES,IC50 [µM]
1,"Cc1cccc(Oc2cc(F)c(C(=O)NS(C)(=O)=O)cc2F)c1 [Example 157, 2,5-difluoro-4-(3-methylphenoxy)-N-(methylsulfonyl)benzamide]",6.8
2,"CC(C)c1cccc(Oc2cc(F)c(C(=O)NS(C)(=O)=O)cc2F)c1 [Example 158, 2,5-difluoro-4-(3-isopropylphenoxy)-N-(methylsulfonyl)benzamide]",0.84
3,"COc1cccc(Oc2ccc(C(=O)NS(C)(=O)=O)cc2)c1 [Example 161, 4-(3-methoxyphenoxy)-N-(methylsulfonyl)benzamide]",28
4,"Cc1ccc(Oc2ccc(C(=O)NS(C)(=O)=O)cc2)cc1C [Example 167, 4-(3,4-dimethylphenoxy)-N-(methylsulfonyl)benzamide]",12
5,"CS(=O)(=O)NC(=O)c1ccc(Oc2ccc(OC(F)(F)F)cc2)cc1 [Example 168, N-(methylsulfonyl)-4-[4-(trifluoromethoxy)phenoxy]benzamide]",1.6
6,"CC(C)c1ccccc1Oc1ccc(C(=O)NS(C)(=O)=O)cc1 [Example 169, 4-(2-isopropylphenoxy)-N-(methylsulfonyl)benzamide]",21
7,"Cc1cc(Oc2ccc(C(=O)NS(C)(=O)=O)cc2)ccc1Cl [Example 170, 4-(4-chloro-3-methylphenoxy)-N-(methylsulfonyl)benzamide]",1.9
8,"CS(=O)(=O)NC(=O)c1ccc(Oc2ccccc2F)cc1 [Example 171, 4-(2-fluorophenoxy)-N-(methylsulfonyl)benzamide]",> 10
9,"Cc1ccc(Oc2ccc(C(=O)NS(C)(=O)=O)cc2)c(C)c1 [Example 172, 4-(2,4-dimethylphenoxy)-N-(methylsulfonyl)benzamide]",16
10,"CC(C)c1ccc(Oc2ccc(C(=O)NS(C)(=O)=O)cc2)cc1 [Example 173, 4-(4-isopropylphenoxy)-N-(methylsulfonyl)benzamide]",1.2
11,"Cc1ccc(Cl)cc1Oc1ccc(C(=O)NS(C)(=O)=O)cc1 [Example 177, 4-(5-chloro-2-methylphenoxy)-N-(methylsulfonyl)benzamide]",16
12,"Cc1ccc(F)cc1Oc1ccc(C(=O)NS(C)(=O)=O)cc1 [Example 179, 4-(5-fluoro-2-methylphenoxy)-N-(methylsulfonyl)benzamide]",> 10
13,"Cc1ccc(Cl)c(Oc2ccc(C(=O)NS(C)(=O)=O)cc2)c1 [Example 180, 4-(2-chloro-5-methylphenoxy)-N-(methylsulfonyl)benzamide]",32
14,"COc1ccc(Oc2ccc(C(=O)NS(C)(=O)=O)cc2)c(Cl)c1 [Example 183, 4-(2-chloro-4-methoxyphenoxy)-N-(methylsulfonyl)benzamide]",> 10
15,"Cc1cccc(Oc2ccc(C(=O)NS(C)(=O)=O)cc2)c1C [Example 184, 4-(2,3-dimethylphenoxy)-N-(methylsulfonyl)benzamide]",24
16,"COc1ccc(C)cc1Oc1ccc(C(=O)NS(C)(=O)=O)cc1 [Example 185, 4-(2-methoxy-5-methylphenoxy)-N-(methylsulfonyl)benzamide]",21
17,"COc1ccc(Oc2ccc(C(=O)NS(C)(=O)=O)cc2)cc1 [Example 186, 4-(4-methoxyphenoxy)-N-(methylsulfonyl)benzamide]",34
18,"COc1ccc(F)cc1Oc1ccc(C(=O)NS(C)(=O)=O)cc1 [Example 188, 4-(5-fluoro-2-methoxyphenoxy)-N-(methylsulfonyl)benzamide]",> 10
19,"COc1cc(C)ccc1Oc1ccc(C(=O)NS(C)(=O)=O)cc1 [Example 189, 4-(2-methoxy-4-methylphenoxy)-N-(methylsulfonyl)benzamide]",> 10
20,"Cc1ccccc1Oc1ccc(C(=O)NS(C)(=O)=O)cc1 [Example 191, 4-(2-methylphenoxy)-N-(methylsulfonyl)benzamide]",> 10
21,"Cc1cccc(C)c1Oc1ccc(C(=O)NS(C)(=O)=O)cc1 [Example 193, 4-(2,6-dimethylphenoxy)-N-(methylsulfonyl)benzamide]",> 10
22,"COc1ccc(Cl)c(Oc2ccc(C(=O)NS(C)(=O)=O)cc2)c1 [Example 194, 4-(2-chloro-5-methoxyphenoxy)-N-(methylsulfonyl)benzamide]",> 10
23,"COc1ccc(Oc2ccc(C(=O)NS(C)(=O)=O)cc2)c(F)c1F [Example 196, 4-(2,3-difluoro-4-methoxyphenoxy)-N-(methylsulfonyl)benzamide]",11
24,"Cn1ccc(-c2ccccc2Oc2ccc(C(=O)NS(C)(=O)=O)cc2)n1 [Example 197, 4-[2-(1-methyl-1H-pyrazol-3-yl)phenoxy]-N-(methylsulfonyl)benzamide]",> 10

# Results, then the compound that gave them:
row,IC50 [µM],SMILES
1,> 3,"CS(=O)(=O)NC(=O)c1cc(F)c(Oc2cccc(Cl)c2)cc1F [Example 156, 4-(3-chlorophenoxy)-2,5-difluoro-N-(methylsulfonyl)benzamide]"
2,28,"Cc1ccc(C)c(Oc2ccc(C(=O)NS(C)(=O)=O)cc2)c1 [Example 162, 4-(2,5-dimethylphenoxy)-N-(methylsulfonyl)benzamide]"
3,12,"CS(=O)(=O)NC(=O)c1ccc(Oc2cccc(C(F)(F)F)c2)cc1 [Example 163, N-(methylsulfonyl)-4-[3-(trifluoromethyl)phenoxy]benzamide]"
4,> 10,"CS(=O)(=O)NC(=O)c1ccc(Oc2ccccc2Cl)cc1 [Example 164, 4-(2-chlorophenoxy)-N-(methylsulfonyl)benzamide]"
5,17,"CS(=O)(=O)NC(=O)c1ccc(Oc2cc(F)ccc2F)cc1 [Example 166, 4-(2,5-difluorophenoxy)-N-(methylsulfonyl)benzamide]"
6,20,"Cc1cc(C)cc(Oc2ccc(C(=O)NS(C)(=O)=O)cc2)c1 [Example 174, 4-(3,5-dimethylphenoxy)-N-(methylsulfonyl)benzamide]"
7,> 10,"COc1cc(Cl)ccc1Oc1ccc(C(=O)NS(C)(=O)=O)cc1 [Example 175, 4-(4-chloro-2-methoxyphenoxy)-N-(methylsulfonyl)benzamide]"
8,> 10,"CS(=O)(=O)NC(=O)c1ccc(Oc2ccccc2OCc2ccccc2)cc1 [Example 176, 4-[2-(benzyloxy)phenoxy]-N-(methylsulfonyl)benzamide]"
9,1.3,"CS(=O)(=O)NC(=O)c1ccc(Oc2ccc(OCc3ccccc3)cc2)cc1 [Example 178, 4-[4-(benzyloxy)phenoxy]-N-(methylsulfonyl)benzamide]"
10,1.6,"CC(C)c1cccc(Oc2ccc(C(=O)NS(C)(=O)=O)cc2)c1 [Example 181, 4-(3-isopropylphenoxy)-N-(methylsulfonyl)benzamide]"
11,1.4,"CS(=O)(=O)NC(=O)c1ccc(Oc2ccc(Cl)c(Cl)c2)cc1 [Example 182, 4-(3,4-dichlorophenoxy)-N-(methylsulfonyl)benzamide]"
12,14,"CS(=O)(=O)NC(=O)c1ccc(Oc2cc(F)cc(F)c2)cc1 [Example 192, 4-(3,5-difluorophenoxy)-N-(methylsulfonyl)benzamide]"
13,22,"CS(=O)(=O)NC(=O)c1ccc(Oc2cccc(F)c2F)cc1 [Example 195, 4-(2,3-difluorophenoxy)-N-(methylsulfonyl)benzamide]"
14,1.4,"Cc1ccc(Oc2ccc(C(=O)NS(C)(=O)=O)cc2)cc1Cl [Example 198, 4-(3-chloro-4-methylphenoxy)-N-(methylsulfonyl)benzamide]"

# — patent US8685977B2, “Chemical compounds” (Pfizer Limited, priority 2010, dated 2014)
